{"source": "patent US6664271B1", "about": "“Immunopotentiator agents” (Eli Lilly and Company, priority 1999, dated 2003)", "key": {"[1]": {"tested_on": "mononuclear leukocytes", "experiment": "mammalian T-lymphocyte blastogenesis assay, canine (Example 75)", "type": "cell-based", "protocol": "(§1) The compound prepared in Example 30, namely (S)-ethyl 1-(2-thiopheneacetyl)-3-peridinecarboxylate, was further evaluated for in vitro T-lymphocyte blastogenic activity from mammalian species other than avian.\n(§2) The mammalian blastogenesis assays were conducted with the same protocol as the vian assays with the following exceptions:\n(§3) 1. Only mononuclear leukocytes are used for the mammalian assay. The cells are obtained from whole blood by differential centrifugation using Histopague 1.077 (Sigma Chemical Company, St. Louis, Mo).\n(§4) 2. 0.5% Fetal Bovine Serum (FBS) [GIBCOBRL, Grand Island N.Y.] is added to RPMI 1640 medium. Exception: Non-human primate plasma is used instead of FBS at 5 ml/liter to RPMI 1640 medium.\n(§5) 3. 5×10^5 cells/well were used with the mammalian assays."}, "[2]": {"tested_on": "E. coli", "experiment": "colibacillosis infection model in broiler chickens, Trial B (Example 78)", "type": "in vivo, chicken"}, "[3]": {"tested_on": "Actinobacillus pleuropneumoniae (App) 92C", "experiment": "Seeder Pig Infection Model (Example 76)", "type": "in vivo", "conditions": "contact pigs", "source_text": "The compound prepared in Example 30, namely (S)-ethyl 1-(2-thiopheneacetyl)-3-piperidinecarboxylate, was utilized in a test formulation to investigate its efficacy to prevent or control the horizontal transmission of Actinobacillus pleuropneumoniae (App) 92C in a Seeder Pig Infection Model. The seeder pig model was chosen for the efficacy evaluation of the immunopotentiator compounds and analogs to prevent or control disease caused by App in recently weaned pigs. This model mimics a field outbreak of pneumonia in nursery pigs.\nThe animals tested were purchased from a commercial herd source known to be free of obvious disease and not recently on medication. There were a total of seventy-two (72) pigs, recently weaned and weighing in the approximate range of 15-20 pounds (6.8-9.1 kg). The challenged pigs were infected with an intranasal inoculation of Actinobacillus pleuropneumoniae (App), lyophilized #92C, a serotype 1, Iowa strain. The challenge material was a saline suspension containing a 2.5 hour log-phase growth broth culture, centrifuged and reconstituted at a concentration that contains 3×10^7 App 92C colony forming units (CFU) per pig in a 4 ml dose. An approved Animal Use Protocol governed the conduct of this trial.\nUpon arrival, the pigs were double ear-tagged and divided into contact (48) and seeder (24) pig/groups. The seeder pigs were placed in two (2) groups of twelve (12) pigs per room (Groups 1). The contact pigs were placed in (8) groups of six (6) pigs per room (Groups 2-9). Lilly swine ration, AP11 SW and water were available ad libitum. All animals were observed daily and a room record was recorded.\nDay −5 Pigs arrive for the acclimation period of a minimum of 5 days.\nDay 0 Daily individual observations of clinical impression signs begin and continue throughout the experiment. These were scored on a 0 to 3 scale (0=normal: alert, responsive; 1=slight: dyspnea, rough coat, slow to react; 2=moderate: lethargic, rough coat, breathing difficulty; 3=severe: unresponsive, breathing distress (open mouth).\nDay 0 Individual animal weights of the contacts were taken.\nDay 0 2 hours prior to infection of the seeder pigs, the contact pigs were injected via the intraperitoneal route with the test formulations. Two (2) rooms of six (6) pigs were treated with each of the following dose levels: 0 μg/pig, 125 μg/pig, 250 μg/pig, and 500 μg/pig.\nDay 0 Twenty-four (24) seeder pigs were challenged with a dose containing […] CFU of Actinobacillus pleuropneumoniae (App) 92C inoculum. The infected seeder pigs were then placed, 3 pigs per room, with the 6 treated contact pigs. To maximize the horizontal transmission of App, the living space in the rooms was reduced from 120 sq. ft. to 60 sq. ft., by placing partitions in the rooms.\nDay +3 to +5 The seeder pigs were removed from all rooms. The pigs were euthanized, lung pathology was determined and lung cultures were taken. Moribund animals were euthanized. Any animals that succumbed to infection while on test were necropsied, lung lesions were scored and a sample was taken for bacterial isolation.\nDay +14 The experiment was terminated. The contact pigs (Groups 2-9) were weighed, euthanized, and necropsied, with lung lesion scoring and bacterial culture assessment.\nThe test formulations were in an Acetate Buffered Saline vehicle. Samples were analyzed for potency. Data obtained was analyzed for weight gain, mortality, clinical impression scores, lung lesions, and bacteriologic recovery. Statistics were performed as appropriate to detect differences between groups."}, "[4]": {"tested_on": "mononuclear leukocytes", "experiment": "mammalian T-lymphocyte blastogenesis assay, non-human primate (Example 75)", "type": "cell-based", "protocol": "as §1, §2, §3, §4, §5"}}, "note": "Marks after values point to notes of the source that are not given here."}
{"compound": "CCOC(=O)[C@H]1CCCN(C(=O)Cc2cccs2)C1", "note": "[Example 30, (S)-Ethyl 1-(2-Thiopheneacetyl)-3-piperidinecarboxylate]", "values": [{"measurement": "MSC", "setting": "[1]", "result": 1, "unit": "μg μg/ml"}, {"measurement": "MTC", "setting": "[1]", "result": 100, "unit": "µg/mL"}, {"measurement": "% Colibacillosis-associated Mortality", "setting": "[2]; 2 μg/chick subcutaneous", "result": 5, "unit": "%"}, {"measurement": "Average Weight Gain/Bird (lbs)", "setting": "[2]; 2 μg/chick subcutaneous", "result": "2.53 lb (1.15 kg)"}, {"measurement": "Feed/Gain", "setting": "[2]; 2 μg/chick subcutaneous", "result": 1.56}, {"measurement": "% Colibacillosis-associated Mortality", "setting": "[2]; 12.5 μg/chick subcutaneous", "result": "2.8* %"}, {"measurement": "% Total Mortality", "setting": "[2]; 12.5 μg/chick subcutaneous", "result": "10* %"}, {"measurement": "Average Weight Gain/Bird (lbs)", "setting": "[2]; 12.5 μg/chick subcutaneous", "result": "2.44 lb (1.11 kg)"}, {"measurement": "Feed/Gain", "setting": "[2]; 12.5 μg/chick subcutaneous", "result": 1.59}, {"measurement": "% Colibacillosis-associated Mortality", "setting": "[2]; 25 μg/chick subcutaneous", "result": 6.8, "unit": "%"}, {"measurement": "% Total Mortality", "setting": "[2]; 25 μg/chick subcutaneous", "result": 14.3, "unit": "%"}, {"measurement": "Average Weight Gain/Bird (lbs)", "setting": "[2]; 25 μg/chick subcutaneous", "result": "2.49 lb (1.13 kg)"}, {"measurement": "Feed/Gain", "setting": "[2]; 25 μg/chick subcutaneous", "result": 1.57}, {"measurement": "% Lung Consolidation", "setting": "[3]; 125 μg/pig intraperitoneal", "result": 14.0, "unit": "%"}, {"measurement": "% Lung Lesions", "setting": "[3]; 125 μg/pig intraperitoneal", "result": 41.5, "unit": "%"}, {"measurement": "% Mortality", "setting": "[3]; 125 μg/pig intraperitoneal", "result": 16.6, "unit": "%"}, {"measurement": "App Reisolation", "setting": "[3]; 125 μg/pig intraperitoneal", "result": 41.5}, {"measurement": "% Lung Consolidation", "setting": "[3]; 250 μg/pig intraperitoneal", "result": 0.44, "unit": "%"}, {"measurement": "% Lung Lesions", "setting": "[3]; 250 μg/pig intraperitoneal", "result": "0* %"}, {"measurement": "% Mortality", "setting": "[3]; 250 μg/pig intraperitoneal", "result": 0, "unit": "%"}, {"measurement": "App Reisolation", "setting": "[3]; 250 μg/pig intraperitoneal", "result": "0*"}, {"measurement": "% Lung Consolidation", "setting": "[3]; 500 μg/pig intraperitoneal", "result": 4.0, "unit": "%"}, {"measurement": "% Lung Lesions", "setting": "[3]; 500 μg/pig intraperitoneal", "result": 42.0, "unit": "%"}, {"measurement": "% Mortality", "setting": "[3]; 500 μg/pig intraperitoneal", "result": 0, "unit": "%"}, {"measurement": "App Reisolation", "setting": "[3]; 500 μg/pig intraperitoneal", "result": 42}, {"measurement": "MSC", "setting": "[4]", "result": 10, "unit": "μg μg/ml"}, {"measurement": "MTC", "setting": "[4]", "result": 1, "unit": "mg/mL"}]}
